Consider 5 compounds from patent publication US9458337B2, “Curable resin composition, water-soluble ink composition, ink set, and image-forming method” (FUJIFILM CORPORATION, priority 2012, dated 2016).

This series is described as follows: Degree of solubility of polymerization initiators (3 mass % aqueous solution). The format is physicochemical. Details: key: A: The polymerization initiator was fully dissolved at room temperature.; B: The polymerization initiator was slightly precipitated at room temperature, and was fully dissolved when being heated at 60° C.; The polymerization initiator was not fully dissolved even when being heated at 60° C. To be noted: 3 mass % aqueous solution of the polymerization initiator; room temperature / heated at 60° C. On the procedure: 3 mass % aqueous solutions were respectively prepared using Polymerization Initiators I-1 to I-5, I-8, and R-1 to R-4, and the degrees of solubility of the polymerization initiators were evaluated according to the following evaluation standards.
A: The polymerization initiator was fully dissolved at room temperature.
B: The polymerization initiator was slightly precipitated at room temperature, and was fully dissolved when being heated at 60° C.
C: The polymerization initiator was not fully dissolved even when being heated at 60° C.
As for `C[N+](C)(CCCS(=O)(=O)[O-])CCOc1ccc2c(=O)c3ccccc3sc2c1` [Compound I-1], the Degree of solubility entry is on record as “A”. For `CC(C)(O)C(=O)c1ccc(OCCO)cc1` [Compound R-1], the Degree of solubility result is on record as “C”. The value for `Cc1c(OCC(O)C[N+](C)(C)C)cc2c(=O)c3ccccc3sc2c1C` (centres unmarked) [Compound R-2] was “A”.

Consider `COC(OC)(C(=O)c1ccc(OCC(=O)[O-])cc1)c1ccc(OCC(=O)[O-])cc1.[Na+].[Na+]` [Compound R-3], for which the Degree of solubility entry is recorded as “C”. On to `CCC(Cc1ccc(S(=O)(=O)O)cc1)(C(=O)c1ccc(N2CCOCC2)cc1)N(C)C` (centres unmarked) [Compound R-4], for which the Degree of solubility result was “A”.
